Reference: PMC4847155 (Biochemical Journal, 2016)
Counter-ions that a name gives are not always drawn. Like-named read-outs stand apart in the source and are kept apart here.

Assays:
Wt BMK cells = assay: Live-cell imaging of cell death; type: cell-based, mouse; details: for effect on apoptosis of Wt compared with DKO cells (annexin V staining): Wt versus DKO BMK cells, among the five compounds
[1] = system: Bax−/− Bak−/− (DKO) BMK cells; assay: Live-cell imaging of cell death; type: cell-based, mouse; details: 24 h
Bax [2] = molecular target: T1, Bax (Homo sapiens, UniProt Q07812); type: biochemical; details: 100 nM Bax, 10 μM compound or 20 nM cBid/Bim, no membranes, DSS
T1 sequence (Q07812 whole entry): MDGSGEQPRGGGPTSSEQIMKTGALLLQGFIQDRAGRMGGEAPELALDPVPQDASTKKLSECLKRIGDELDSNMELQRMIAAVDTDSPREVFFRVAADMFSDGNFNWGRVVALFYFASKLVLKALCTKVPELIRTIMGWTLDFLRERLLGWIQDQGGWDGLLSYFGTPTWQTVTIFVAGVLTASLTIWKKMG

C126A Bax = C126A Bax (Homo sapiens, UniProt Q07812, C126A); details: mitochondria, 20 nM Bax, 10 μM compound
C126A Bax, sequence (Q07812 whole entry C126A): as the sequence (Q07812 whole entry) above, with C126A counted along it

Bax [3] = molecular target: T1, Bax; assay: biochemical; type: biochemical
Bax [4] = molecular target: T1, Bax; type: biochemical; details: 100 nM Bax, 10 μM compound, DSS
Bax [5] = molecular target: T1, Bax; assay: biochemical

Compound | formation of dimers and higher-order Bax oligomers in solution (Bax [2]) | activation of C126A Bax (C126A Bax) | effect on apoptosis of Wt compared with DKO cells (annexin V staining) (Wt BMK cells) | EC50 (Bax [5]) [µM] | EC50 (Bax [3]) [nM] | also measured
O=c1c2ccccc2[se]n1-c1ccccc1 [Ebselen, ebselen] | pronounced effects | almost completely resistant |  |  |  | toxicity to cells (Wt BMK cells; Wt BMK cells, 24 h): not toxic; toxicity to cells ([1]; DKO BMK cells): not toxic
CC(=O)[O][Hg][c]1ccccc1 [PMA, phenylmercuric acetate] |  |  | most pronounced effects |  |  | EC50 (Bax [3]; read-out: EC50 in mitochondria, 20 nM Bax, mitochondria from Bax−/− Bak−/− BMK cells, Smac–mCherry release): 1300 nM; Bax oligomerization (higher-order complexes) in liposomes (Bax [4]): most pronounced effects
CC1=CC(=O)c2c(O)cccc2C1=O [Plumbagin, plumbagin] |  |  | most pronounced effects | > 3 | 1500 | 
CC(C)N(CCC(=O)c1ccc2ccccc2c1)Cc1ccccc1 [ZM, ZM39923 hydrochloride] |  | almost completely resistant |  | > 3 | 3500 | EC50 (Wt BMK cells; Mus musculus, 24 h, read-out: EC50 of cell kill): ~10 µM; EC50 ([1]; Mus musculus, read-out: EC50 of cell kill): ~10 µM
Bim: pro-apoptotic BH3 protein, recombinant, positive control for Bax oligomerization | no effects |  |  |  |  | 
